US20250381169A1, “METHODS FOR TREATING RENAL DISEASE” (Arizona Board of Regents on Behalf of the University of …, priority 2022, published 2025)
“Also recorded” adds a separate entry of the source.

Assays:
[1] = test system: kidney cortex of naïve mice; experiment: Mitochondrial biogenesis in kidney cortex of naïve mice; type: in vivo
Procedure: Mice were treated with vehicle, 0.3 mg/kg or 1 mg/kg of MC16 with 2 doses IP (Oh, 24h) and harvested at 48 h.
Proteins were measured using immunoblot analysis or PCR to measure mRNA. […] FIG. 2G is a table of antioxidant and electron transport chain proteins and associated mRNAs.

[2] = test system: renal proximal tubule cells (RPTCs); experiment: Renal proximal tubule cells treated with high glucose; type: cell-based
Procedure: Here, the effects of MC16 on mitochondrial dysfunction and dynamics in renal proximal tubule cells (RPTCs) treated with high glucose and in a mouse model of type 2 diabetes was assessed.

[3] = test system: aged mouse kidneys (renal cortex); experiment: Global metabolomics of renal cortex in aged mice; type: in vivo
Procedure: Aged 22-month-old male C57B/6J mice were administered 1.0 mg/kg of MC16 or normal saline every other day over a 21-day interval (n=8-9/group). Seven-month-old C57B/6J male mice (controls) were administered normal saline every other day over a 21-day interval (n=7). Kidneys were harvested and snap frozen in liquid nitrogen. Renal cortex biopsies were analyzed by Metabolon for global metabolomic analyses. Briefly, samples were processed and divided into four fractions: two for analysis by RP/UPLC-MS/MS with (+) ion mode electrospray ionization (IMESI), one for RP/UPLC-MS/MS with (−) IMESI, and one for HILIC/UPLC-MS/MS with (−) IMESI. […] A p-value of p≤0.05 and a false discovery rate of q<0.10 were utilized to identify global metabolite alteration and correct for multiple comparisons, respectively.

[4] = test system: mice subjected to renal I/R; experiment: Mouse AKI model (renal ischemia reperfusion, I/R); type: in vivo
Procedure: Control and treated mice subjected to renal I/R were treated with MC16 (0.3 mg/kg) or vehicle 24 h after injury and then daily for 120 h (euthanized at 144 h). Using electron microscopy, mitochondria were counted. Vascular permeability was assessed with Evan's blue dye leakage and proteins were measured in renal cortices using immunoblot. Serum creatinine was also measured.

Db/db mice = experiment: db/db mouse model of diabetic kidney disease; type: in vivo
Procedure: Db/db and nondiabetic (db/m) mice (10 wk old) were treated with MC16 or vehicle for 3 wk and euthanized.

[5] = RPTCs exposed to 17 mM glucose, 96 h
[6] = MC16-treated 'old' mice compared to saline-treated 'old' mice
[7] = MC16-treated 'old' mice vs saline-treated 'young' control mice
[8] = I/R+MC16 group, decreased in I/R group
[9] = FIG. 16, compared to diabetic mice getting vehicle
[10] = db/db mice 10 wk old, treated for 3 wk

SMILES: CCN1C(=O)C(Cc2cccc(OC)c2O)(OC(=O)N(C)C)c2cc(Cl)ccc21 (stereo not shown) [MC16, 5-chloro-1-ethyl-3-(2-hydroxy-3-methoxybenzyl)-2-oxoindolin-3-yl dimethylcarbamate]
- mitochondrial and antioxidant proteins ([1]; immunoblot or PCR, n=6): increases
- mitochondrial biogenesis pathway proteins and/or associated mRNA ([1]; immunoblot or PCR, n=6): induces
- Mitochondrial number in kidney cortex ([1]; naïve mice, 0.3 mg/kg or 1 mg/kg, 2 doses IP (0 h, 24 h), harvested at 48 h): increases
- ATP [2, 5]: restored
- ETC proteins [2, 5]: restored
- oxygen consumption rate [2, 5]: restored
- Mfn1 ([2]; RPTCs exposed to high glucose): restored
- phospho-Drp1 ([2]; RPTCs exposed to high glucose): restored
- reduction in DHAP [3, 6]: 20%
- reduction in fructose-6-phosphate [3, 6]: 24%
- reduction in glucose-6-phosphate [3, 6]: 32%
- long chain polyunsaturated fatty acids (n3 and n6) ([3]; MC16-treated 'old' mice vs saline-treated 'old' and 'young' mice controls): increase
- glycolysis metabolites [3, 7]: no statistical changes
- metabolic lipid alterations (diacylglycerols, monoacylglycerols, acyl glycines, PC, PE, plasmalogens, secondary bile acids) [3, 7]: not observed
- origin of carnitine species ([3]; MC16-treated 'old' mice, saline-treated 'old' mice: leucine, isoleucine, valine metabolism): fatty acid metabolism
- carnitine levels ([3]; both 'old' groups (saline and MC16)): elevated
- recovery of renal function (serum creatinine) ([4]; FIG. 3, n=6): promotes recovery
- recovery of tubular injury (Kim1 expression) ([4]; FIG. 3, n=6): promotes recovery
- MFN2 ([4]; FIG. 5, during injury or MC16 treatment): did not change
- MFN1 (fusion) ([4]; FIG. 5, n=6): increases
- pDRP1 (fission) ([4]; FIG. 6, at 144 h): decreases
- DRP1 ([4]; FIG. 6, n=6): does not have an affect
- PGC-1α in the cytosolic fraction ([4]; FIG. 7, cytosolic fraction): not in the cytosolic fraction
- nuclear PGC-1α (biogenesis) ([4]; FIG. 7, nuclear fraction): increases
- serum creatinine decrease ([4]; I/R+MC16, 0.3 mg/kg from 24 h after injury, daily, at 144 h (I/R group alone 41%)): 72%
- Kim1 decrease ([4]; I/R+MC16 group, 0.3 mg/kg, 144 h): 50%
- PGC-1α ([4]; I/R+MC16 group, renal cortex immunoblot): increased
- Tight junction protein Claudin5 [4, 8]: recovered
- Tight junction protein ZO-1 [4, 8]: recovered
- Evan's blue dye leakage (vascular permeability) ([4]; I/R+MC16 group, increased 2.5-fold in I/R group): restored
- mitochondria biogenesis in renal cortices ([4]; mitochondria counted by electron microscopy, 0.3 mg/kg): 1.4 fold
- PGC1α (Db/db mice; FIG. 9, n=6): restores
- MFN2 (fusion) (Db/db mice; FIG. 10, n=6): increased
- mitochondrial fission proteins (Db/db mice; FIG. 11, n=6): no effect
- mitophagy proteins (Db/db mice; FIG. 12, n=6): increases
- glomerular function over time (Db/db mice; FIG. 13, mice have yet to show signs of DKD in the timeframe): does not change
- vascular tight junction proteins (Db/db mice; FIG. 15, n=6): improves
- blood glucose (Db/db mice; [9]): does not increase/decrease
- urine output (Db/db mice; [9]): does not increase/decrease
- kidney weight (Db/db mice; FIG. 17, relative to control mice): normalized
- KIM1 (Db/db mice; FIG. 18): normalizes
- NGAL (Db/db mice; FIG. 18): No effects
- serum creatinine (Db/db mice; FIG. 18): normalizes
- ATP (Db/db mice; [10]): prevented; also recorded: restores
- phospho-Drp1 (Db/db mice; [10]): restored
- renal cortical ETC protein levels (complexes I, III, and V) (Db/db mice; [10]): prevented; also recorded: restores
